This is an account of results in PMC3974779, “Pterostilbene-Isothiocyanate Conjugate Suppresses Growth of Prostate Cancer Cells Irrespective of Androgen Receptor Status” (PLoS ONE, 2014).

For orientation: inhibition means the change of the read-out against control, counted positive when it falls.

Experiment [1] deals with caspase-8 activity in LNCaP cells. Description: Caspase colorimetric protease assay. Format: cell-based, human. To be noted: 24 h. The protocol: (§1) Caspase activity was determined using ApoTarget caspase colorimetric protease assay sampler kit (KHZ1001; Invitrogen) according to the manufacturer’s instructions. Briefly, both the PCa cells were treated with increasing doses of conjugate and RESV for 24 h. The cells were then collected, washed in PBS, and lysed in 50 μl lysis buffer on ice for 10 min. After centrifugation, the supernatant containing 150 μg proteins were incubated with 200 μM of caspase-3 (Ac-DEVD-pNA), caspase-8 (Ac-IETD-pNA) and caspase-9 (Ac-LEHD-pNA) substrates respectively in reaction buffer at 37°C for 1 h in 96 well flat bottom plate. Levels of released pNA were then measured at 405 nm wavelength with ELISA plate reader (Fluostar optima, BMG Labtech, Germany). The fold-increase in caspase-3, -8, and -9 activities were determined by direct comparison to the level of un-induced control. For the caspase inhibitor assay, cells were pretreated with a synthetic pan-caspase inhibitor (Z-VAD-FMK), caspase-8 inhibitor (Z-IETD-FMK) and caspase-9 inhibitor (Z-LEHD-FMK) for 1 h before the addition of conjugate and the cell death were analyzed by MTT assay as discussed earlier.

For experiment [2], the system named is caspase-3 activity in PC-3 cells. Description: Caspase colorimetric protease assay. Format: cell-based, human. Particulars: PC-3, 10, 20 and 40 μM, 24 h. Here is the method:
as §1

Experiment [3] has as its system caspase-9 activity in LNCaP cells. Description: Caspase colorimetric protease assay. It counts as cell-based, human. Particulars: 24 h. The protocol:
as §1

Experiment [4] concerns caspase-3 activity in LNCaP cells. In words: Caspase colorimetric protease assay. Format: cell-based, human. To be noted: 24 h. The protocol:
as §1

Experiment [5] deals with caspase-8 activity in PC-3 cells. Description: Caspase colorimetric protease assay. Format: cell-based, human. Particulars: PC-3, 24 h, high dose. Here is the method: as §1
Experiment [6] deals with caspase-9 activity in PC-3 cells. In words: Caspase colorimetric protease assay. It counts as cell-based, human. To be noted: PC-3, 10, 20 and 40 μM, 24 h. The protocol:
as §1

For experiment [7], the target named is T1, androgen receptor in LNCaP cells (Homo sapiens, UniProt P10275, T878A).
T1 construct: LNCaP cells, that express endogenous AR; endogenous in cells; host or cells: LNCaP
T1 sequence (P10275 1-920 T878A): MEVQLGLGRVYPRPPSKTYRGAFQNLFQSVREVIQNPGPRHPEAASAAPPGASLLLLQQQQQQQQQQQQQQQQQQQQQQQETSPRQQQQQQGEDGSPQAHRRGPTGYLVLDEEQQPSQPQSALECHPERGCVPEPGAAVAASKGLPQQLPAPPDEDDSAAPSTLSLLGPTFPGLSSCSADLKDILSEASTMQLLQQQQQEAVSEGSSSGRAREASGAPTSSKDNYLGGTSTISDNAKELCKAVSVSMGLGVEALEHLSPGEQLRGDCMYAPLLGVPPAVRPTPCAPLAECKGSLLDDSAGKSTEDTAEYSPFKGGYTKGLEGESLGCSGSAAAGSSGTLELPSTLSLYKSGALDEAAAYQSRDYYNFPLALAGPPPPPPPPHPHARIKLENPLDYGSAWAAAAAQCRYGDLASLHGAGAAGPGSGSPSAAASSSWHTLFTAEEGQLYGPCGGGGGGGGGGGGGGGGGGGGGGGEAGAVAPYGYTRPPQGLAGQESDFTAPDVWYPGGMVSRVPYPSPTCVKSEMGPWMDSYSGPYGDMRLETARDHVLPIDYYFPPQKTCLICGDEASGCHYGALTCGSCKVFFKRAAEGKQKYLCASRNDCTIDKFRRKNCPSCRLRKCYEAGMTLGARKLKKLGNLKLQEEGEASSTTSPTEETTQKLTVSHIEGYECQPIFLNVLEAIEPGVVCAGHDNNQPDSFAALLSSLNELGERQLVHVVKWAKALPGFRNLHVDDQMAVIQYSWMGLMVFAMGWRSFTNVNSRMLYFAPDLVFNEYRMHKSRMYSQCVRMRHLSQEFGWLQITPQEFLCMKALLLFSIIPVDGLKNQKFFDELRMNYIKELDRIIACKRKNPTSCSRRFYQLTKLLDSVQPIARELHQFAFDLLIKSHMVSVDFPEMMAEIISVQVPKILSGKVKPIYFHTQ
Description: AR transactivation luciferase assay (pMMTV-luc). It counts as cell-based. The protocol: The LNCaP cells were grown and transiently transfected with pMMTV-neomycin-luciferase plasmid (300 ng/10^5 cells) in RPMI media supplemented with 10% FBS using polyfect transfection reagent (Qiagen, CA, USA) according to manufacturer’s instructions. Then, 24 h after transfection, the cell culture media were changed with media containing 5% charcoal-stripped FBS to reduce the contaminating steroids from the serum and incubated for an additional day before initiating the treatments. In case of PC-3 cells, they were similarly transfected, but in addition to pMMTV-neomycin-luciferase construct, they were also transfected with pSG5-hAR-puro plasmid (full length hAR in pSG5 expression vector) in the ratio of 5∶1 as indicated above. For experiments involving co-regulators, 50 ng of co-activator plasmids (25 ng each of GRIP-1 and SRC-1) along with pMMTV-neo-luc (250 ng) were transfected to LNCaP cells. To evaluate the transfection efficiency, 500 ng/105 cells of the SV40 promoter-Renilla luciferase (pRL-SV40) vector (Promega Madison, USA) were co-transfected as internal control. […] Each experimental point was performed in triplicate and varied by less than 10%. The values of luciferase for each lysates were normalized to the Renilla luciferase activity.

Regarding `COc1cc(/C=C/c2ccc(O)c(/C=N/NC(N)=S)c2)cc(OC)c1` [conjugate, Pterostilbene-isothiocyanate conjugate], the results for the caspase-8 activity result in experiment [1] and in experiment [5] were “significant increase” and “no such induction was observed”, respectively. Besides, the caspase-3 enzyme activity entry in experiment [2] is recorded as “dose-dependent augmentation”. Also, the caspase-9 activity entry in experiment [3] is on record as “significant increase”. Further, the caspase-3 activity result in experiment [4] was “significant increase”. Also, in experiment [6], the caspase-9 enzyme activity result is reported as “dose-dependent augmentation”. Besides, in experiment [7] (1–40 μM, without DHT), the “transcriptional activation by compound alone” value is “did not induce transcriptional activation”. Besides, the inhibition at 40 µM in experiment [7] (read-out: inhibition of androgen-induced transactivation) is ~73%.
